Source: PMC7527709 (Redox Biology, 2020)

Columns and labels:
[1] = target: T1, Kv1.3 (Homo sapiens, UniProt P22001); test: whole-cell patch clamp, Kv1.[…] stably expressed in CHO cells; assay type: cell-based
[2] = target: T1, Kv1.3; test: whole-cell patch clamp of Kv1.[…] current in Jurkat lymphocytes, […] compound; assay type: cell-based; conditions: read-out: % inhibition at 1 μM

T1 sequence (P22001 whole entry): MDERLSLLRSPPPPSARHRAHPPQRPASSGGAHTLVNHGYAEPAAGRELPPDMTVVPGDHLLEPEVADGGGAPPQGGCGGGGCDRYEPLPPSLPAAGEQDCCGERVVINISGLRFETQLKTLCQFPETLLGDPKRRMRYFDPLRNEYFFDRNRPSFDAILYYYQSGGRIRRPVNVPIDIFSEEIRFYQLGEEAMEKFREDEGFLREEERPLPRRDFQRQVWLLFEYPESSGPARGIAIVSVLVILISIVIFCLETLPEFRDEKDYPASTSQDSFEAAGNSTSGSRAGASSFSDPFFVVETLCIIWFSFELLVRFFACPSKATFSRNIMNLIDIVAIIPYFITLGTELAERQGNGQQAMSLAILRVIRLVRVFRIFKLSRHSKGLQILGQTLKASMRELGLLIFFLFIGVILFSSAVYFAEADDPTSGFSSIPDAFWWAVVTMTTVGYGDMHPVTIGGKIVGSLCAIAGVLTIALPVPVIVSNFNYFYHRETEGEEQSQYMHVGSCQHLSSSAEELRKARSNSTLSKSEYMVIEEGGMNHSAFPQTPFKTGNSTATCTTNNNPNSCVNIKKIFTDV

Q: With `COCCOCCOCCOCCOCCOCCOc1ccc(OCCCCOc2c3ccoc3cc3oc(=O)ccc23)cc1` [PAP-1-MHEG, 4-(4-(4-(2,5,8,11,14,17-hexaoxanonadecan-19-yloxy)phenoxy)butoxy)-7H-furo[3,2-g]chromen-7-one] as the molecule, how does the EC50 [1] read?
A: The EC50 was 350 ± 30 nM.

Q: Which inhibition at 1 µM [2] does the source give for `CCCCCOc1ccc(OCCOCCOCCOCCOCCOCCOC)cc1` [POP-MHEG, 19-(4-(pentyloxy)phenoxy)-2,5,8,11,14,17-hexaoxanonadecane] here?
A: The inhibition at 1 µM was about 70%.
